Legend:
[1] = biological target: JAK1 (recombinant purified GST-tagged catalytic domain) (Homo sapiens (Human), UniProt P23458); test: Jak Biochemical HTRF Assay (JAK1); conditions: [ATP] 31.8 μM
Description: (§1) Jak Biochemical HTRF Assay Protocol
The ability of compounds to inhibit the activity of JAK1, JAK2, JAK3, and Tyk2 was measured using a recombinant purified GST-tagged catalytic domain for each enzyme (Invitrogen JAK1 #M4290, JAK2 #M4290, JAK3 #M4290, Tyk2 #M4290) in an HTRF format biochemical assay. The reactions employed a common peptide substrate, LCB-[…]-NH2 (in-house). The basic assay protocol is as follows: First, 250 nL of diluted compounds in DMSO were dispensed into the wells of a dry 384-well Black plate (Greiner #781076) using a Labcyte Echo 555 acoustic dispenser. Subsequent reagent additions employed an Agilent Bravo. […] After equilibration, 2 μL of 10×ATP in 1× assay buffer was added to initiate the kinase reaction and the plates were shaken and then incubated at room temperature for 120 minutes. At the end of the incubation, 20 μL of 2× stop buffer (streptavidin-Dylight 650 (Thermo #84547B/100 mL), Eu-tagged pY20 antibody (Perkin Elmer #AD0067), EDTA, HEPES, and Triton) was added to quench the reaction. Plates were shaken and centrifuged and then incubated 60 minutes at room temperature and then read on a Perkin Elmer Envision (λex=337 nm, λem=665 and 615 nm, TRF delay time=20 μs). HTRF signal=10,000*665 nm reading/615 nm reading. After normalization to untreated controls, the percent inhibition of the HTRF signal at each compound concentration was calculated. The plot of percent inhibition versus the log of compound concentration was fit with a 4-parameter dose response equation to calculate IC50 values.
(§2) Final reaction conditions were:
Examples of the instant invention were evaluated in JAK1 and JAK2 in vitro binding assays as described above. The following table tabulates the JAK1 IC50 values and JAK2 IC50 values disclosed for the instant invention.

[2] = biological target: JAK2 (recombinant purified GST-tagged catalytic domain) (Homo sapiens (Human), UniProt O60674); test: Jak Biochemical HTRF Assay (JAK2); conditions: [ATP] 8.5 μM
Sequence of JAK2 (recombinant purified GST-tagged catalytic domain) (O60674 849-1124): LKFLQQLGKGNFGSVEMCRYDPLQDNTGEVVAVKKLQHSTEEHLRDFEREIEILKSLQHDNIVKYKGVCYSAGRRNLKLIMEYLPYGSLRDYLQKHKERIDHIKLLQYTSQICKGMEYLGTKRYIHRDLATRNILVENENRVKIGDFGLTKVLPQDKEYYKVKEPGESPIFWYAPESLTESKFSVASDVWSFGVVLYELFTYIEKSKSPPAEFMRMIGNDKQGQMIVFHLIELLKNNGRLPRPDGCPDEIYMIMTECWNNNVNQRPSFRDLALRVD
Description: as §1
The ability of compounds to inhibit the activity of JAK1, JAK2, JAK3, and Tyk2 was measured using a recombinant purified GST-tagged catalytic domain for each enzyme (Invitrogen JAK1 #M4290, JAK2 #M4290, JAK3 #M4290, Tyk2 #M4290) in an HTRF format biochemical assay. […] The basic assay protocol is as follows: First, 250 nL of diluted compounds in DMSO were dispensed into the wells of a dry 384-well Black plate (Greiner #781076) using a Labcyte Echo 555 acoustic dispenser. Subsequent reagent additions employed an Agilent Bravo. […] After equilibration, 2 μL of 10×ATP in 1× assay buffer was added to initiate the kinase reaction and the plates were shaken and then incubated at room temperature for 120 minutes. […] Plates were shaken and centrifuged and then incubated 60 minutes at room temperature and then read on a Perkin Elmer Envision (λex=337 nm, λem=665 and 615 nm, TRF delay time=20 μs). HTRF signal=10,000*665 nm reading/615 nm reading. After normalization to untreated controls, the percent inhibition of the HTRF signal at each compound concentration was calculated. The plot of percent inhibition versus the log of compound concentration was fit with a 4-parameter dose response equation to calculate IC50 values.
as §2
Examples of the instant invention were evaluated in JAK1 and JAK2 in vitro binding assays as described above.

Sequence of JAK1 (recombinant purified GST-tagged catalytic domain) (P23458 875-1153): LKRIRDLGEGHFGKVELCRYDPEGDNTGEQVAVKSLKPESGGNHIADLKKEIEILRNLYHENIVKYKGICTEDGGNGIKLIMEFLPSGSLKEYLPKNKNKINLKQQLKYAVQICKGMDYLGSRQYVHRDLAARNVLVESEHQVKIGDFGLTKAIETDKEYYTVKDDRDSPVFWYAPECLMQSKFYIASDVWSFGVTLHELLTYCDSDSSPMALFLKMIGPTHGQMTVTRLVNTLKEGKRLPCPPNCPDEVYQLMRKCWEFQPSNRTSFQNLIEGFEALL

IC50 [1] [nM]	IC50 [2] [nM]	Compound
0.21	0.31	Cc1cc(Nc2nn([C@]3(CC#N)CC[C@@H](C(=O)OC(C)(C)C)OC3)c3cc[nH]c(=O)c23)ccc1C(=O)N1CCOC(C)C1 (single isomer, unassigned) [Example 20-10, (2S,5S)-tert-butyl 5-(cyanomethyl)-5-(3-((3-methyl-4-((S or R)-2-methylmorpholine-4-carbonyl)phenyl)amino)-4-oxo-4,5-dihydro-1H-pyrazolo[4,3-c]pyridin-1-yl)tetrahydro-2H-pyran-2-carboxylate]
0.33	0.49	CC(C)(C)OC(=O)N1CCC(CC#N)(n2nc(Nc3ccc(C4(C(F)(F)F)CCNC4)cc3)c3c(=O)[nH]ccc32)CC1 (single isomer, unassigned) [Example 5-282, (S or R) tert-butyl 4-(cyanomethyl)-4-(4-oxo-3-((4-(3-(trifluoromethyl)pyrrolidin-3-yl)phenyl)amino)-4,5-dihydro-1H-pyrazolo[4,3-c]pyridin-1-yl)piperidine-1-carboxylate]
0.23	0.55	N#CC[C@@]1(n2nc(Nc3ccc(S(=O)(=O)N4CCC4)cc3)c3c(=O)[nH]ccc32)CCCOC1 [Example 5-105, [(3S)-3-(3-{[4-(azetidin-1-ylsulfonyl)phenyl]amino}-4-oxo-4,5-dihydro-1H-pyrazolo[4,3-c]pyridin-1-yl)tetrahydro-2H-pyran-3-yl]acetonitrile]
0.15	0.33	N#CC[C@@]1(n2nc(Nc3ccc(C(N4CCCC4)C(F)(F)F)cc3)c3c(=O)[nH]ccc32)CCCOC1 (single isomer, unassigned) [Example 5-199, {(3S)-3-[4-oxo-3-({4-[(1S or 1R)-2,2,2-trifluoro-1-pyrrolidin-1-ylethyl]phenyl}amino)-4,5-dihydro-1H-pyrazolo[4,3-c]pyridin-1-yl]tetrahydro-2H-pyran-3-yl}acetonitrile]
0.08	0.26	CC(C)S(=O)(=O)c1ccc(Nc2nn([C@]3(CC#N)CCCOC3)c3cc[nH]c(=O)c23)cc1 [Example 5-179, {(3S)-3-[3-({4-[(1-methylethyl)sulfonyl]phenyl}amino)-4-oxo-4,5-dihydro-1H-pyrazolo[4,3-c]pyridin-1-yl]tetrahydro-2H-pyran-3-yl}acetonitrile]
67.6	> 1500	CC(C)(C)OC(=O)N1CCC(CC#N)(n2nc(NC3CCC3)c3c(=O)[nH]ccc32)CC1 [Example 2-3, tert-butyl 4-(cyanomethyl)-4-[3-(cyclobutylamino)-4-oxo-4,5-dihydro-1H-pyrazolo[4,3-c]pyridin-1-yl]piperidine-1-carboxylate]
0.06	0.12	CN(C)S(=O)(=O)c1ccc(Nc2nn(C3(CC#N)CCN(S(=O)(=O)C4CC4)CC3)c3cc[nH]c(=O)c23)cc1 [Example 14-2, 4-((1-(4-(cyanomethyl)-1-(cyclopropylsulfonyl)piperidin-4-yl)-4-oxo-4,5-dihydro-1H-pyrazolo[4,3-c]pyridin-3-yl)amino)-N,N-dimethylbenzenesulfonamide]
0.21	0.21	CC(C)(C)N1Cc2cc(Nc3nn([C@]4(CC#N)CC[C@@H](N5CC(F)C5)CC4)c4cc[nH]c(=O)c34)ccc2S1(=O)=O [Example 18-35]
0.39	1.2	CC1(C)CCCC1S(=O)(=O)c1ccc(Nc2nn([C@]3(CC#N)CCCOC3)c3cc[nH]c(=O)c23)cc1 (stereo partly drawn) [Example 5-202, {(3S)-3-[3-({4-[(2,2-dimethylcyclopentyl)sulfonyl]phenyl}amino)-4-oxo-4,5-dihydro-1H-pyrazolo[4,3-c]pyridin-1-yl]tetrahydro-2H-pyran-3-yl}acetonitrile]
0.55	3.05	CN(C)S(=O)(=O)c1ccc(Nc2nn(C3(CC#N)CCN(C(=O)C(C)(C)C)CC3)c3cc[nH]c(=O)c23)cc1 [Example 9-5, 4-({1-[4-(cyanomethyl)-1-(2,2-dimethylpropanoyl)piperidin-4-yl]-4-oxo-4,5-dihydro-1H-pyrazolo[4,3-c]pyridin-3-yl}amino)-N,N-dimethylbenzenesulfonamide]
0.08	0.84	COC(=O)N1CCC(CC#N)(n2nc(Nc3ccc4ncccc4c3)c3c(=O)[nH]ccc32)CC1 [Example 5-148, methyl 4-(cyanomethyl)-4-(4-oxo-3-(quinolin-6-ylamino)-4,5-dihydro-1H-pyrazolo[4,3-c]pyridin-1-yl)piperidine-1-carboxylate]
0.44	1.38	CCS(=O)(=O)c1ccc(Nc2nn(C3(CC#N)CCCC3)c3cc[nH]c(=O)c23)cc1 [Example 5-133, 2-(1-(3-((4-(ethylsulfonyl)phenyl)amino)-4-oxo-4,5-dihydro-1H-pyrazolo[4,3-c]pyridin-1-yl)cyclopentyl) acetonitrile]
0.47	0.52	CC(C)CN1Cc2cc(Nc3nn(C4(CC#N)CCN(C(=O)OC(C)(C)C)CC4)c4cc[nH]c(=O)c34)ccc2S1(=O)=O [Example 5-67]
0.12	0.23	CC1CCN1S(=O)(=O)c1ccc(Nc2nn([C@]3(CC#N)CCCOC3)c3cc[nH]c(=O)c23)cc1 (single isomer, unassigned) [Example 5-108, [(3S)-3-{3-[(4-{[(2R or 2S)-2-methylazetidin-1-yl]sulfonyl}phenyl)amino]-4-oxo-4,5-dihydro-1H-pyrazolo[4,3-c]pyridin-1-yl}tetrahydro-2H-pyran-3-yl]acetonitrile]
0.07	–	CC(C)(C)OC(=O)[C@@H]1CC[C@@](CC#N)(n2nc(Nc3ccc(Cn4ccnn4)cc3)c3c(=O)[nH]ccc32)CO1 [Example 5-96, (2S,5S)-tert-butyl 5-(3-((4-((1H-1,2,3-triazol-1-yl)methyl)phenyl)amino)-4-oxo-4,5-dihydro-1H-pyrazolo[4,3-c]pyridin-1-yl)-5-(cyanomethyl) tetrahydro-2H-pyran-2-carboxylate]
4.53	–	CC1(C)OC(=O)c2ccc(Nc3nn(C4(CC#N)CCCC4)c4cc[nH]c(=O)c34)cc21 [Example 5-126, (1-{3-[(3,3-dimethyl-1-oxo-1,3-dihydro-2-benzofuran-5-yl)amino]-4-oxo-4,5-dihydro-1H-pyrazolo[4,3-c]pyridin-1-yl}cyclopentyl)acetonitrile]
1.05	–	CN(C)S(=O)(=O)c1ccc(Nc2nn(C3(CC#N)CCN(C(=O)Cc4ccc(C(F)(F)F)cc4)CC3)c3cc[nH]c(=O)c23)cc1 [Example 9-16, 4-({1-[4-(cyanomethyl)-1-{[4-(trifluoromethyl)phenyl]acetyl}piperidin-4-yl]-4-oxo-4,5-dihydro-1H-pyrazolo[4,3-c]pyridin-3-yl}amino)-N,N-dimethylbenzenesulfonamide]
0.24	–	Cc1cc(Nc2nn([C@]3(CC#N)CC[C@@H](C(=O)OC(C)(C)C)OC3)c3cc[nH]c(=O)c23)ccc1C(=O)N1CCSC(C)C1 (single isomer, unassigned) [Example 5-159, (2S,5S)-tert-butyl 5-(cyanomethyl)-5-(3-((3-methyl-4-((S or R)-2-methylthiomorpholine-4-carbonyl)phenyl)amino)-4-oxo-4,5-dihydro-1H-pyrazolo[4,3-c]pyridin-1-yl)tetrahydro-2H-pyran-2-carboxylate]
0.12	–	CC(C)S(=N)(=O)c1ccc(Nc2nn([C@]3(CC#N)CC[C@@H](C(=O)OC(C)(C)C)OC3)c3cc[nH]c(=O)c23)cc1 (single isomer, unassigned) [Example 5-231, (2S,5S)-tert-butyl 5-(cyanomethyl)-5-(4-oxo-3-((4-(propan-2-yl-(S or R)-sulfonimidoyl)phenyl)amino)-4,5-dihydro-1H-pyrazolo[4,3-c]pyridin-1-yl)tetrahydro-2H-pyran-2-carboxylate]
